Data taken from US20220251611A1, “BENZALDEHYDE PRODUCTION METHOD” (AJINOMOTO CO., INC., priority 2019, published 2022).
Like-named read-outs stand apart in the source and are kept apart here.

Tests used:
[1] = test system: HmaS At-His purified enzyme (HMAS); settings: for Generated amount of mandelate: 10 mM sodium phenylpyruvate, 25° C., 15 minutes, no hydrogen peroxide taken as 100%
Procedure: Cells were collected from 10 mL of the HmaS At culture broth obtained in Example 2 by centrifugation, suspended in 2 mL of xTractor Buffer (Takara Bio), and allowed to stand at room temperature for 20 minutes, to disrupt the cells. The cell residue was removed from the disruptant by centrifugation, and the obtained supernatant was used as a soluble fraction. The soluble fraction was applied to a His-tag protein purification column HisTALON Superflow Cartridges (Takara Bio, CV=1 mL) equilibrated with a buffer containing 20 mM Tris-HCl (pH 8.0), 300 mM NaCl, and 10 mM Imidazole, to adsorb proteins on the carrier. Proteins not adsorbed on the carrier (non-adsorbed proteins) were washed off with a buffer containing 20 mM Tris-HCl (pH 8.0), 300 mM NaCl, and 10 mM Imidazole, and then a buffer containing 20 mM Tris-HCl (pH 8.0), 300 mM NaCl, and 150 mM Imidazole was flowed at 1.5 mL/min, to elute the adsorbed proteins. The eluted fractions were collected and concentrated using Amicon Ultra-15 30 k (Millipore). The concentrate was diluted with 20 mM of Tris-HCl (pH 7.6), and hereinafter used as a HmaS At-His purified enzyme.
A reaction mixture (0.2 mL) containing 10 mM of sodium phenylpyruvate, 0.01 mM of iron sulfate, 10 mM of trisodium citrate, 10 mM of sodium ascorbate, 100 mM of Tris-HCl (pH 7.0), 0.02 mg/mL of the HmaS At-His purified enzyme, and 0 to 1 mM of hydrogen peroxide was put into a 1.5 mL-volume tube, and a reaction was carried out at 25° C. Similarly, a reaction without addition of HmaS At-His was carried out. After 15 minutes, a 0.05 mL aliquot of the reaction mixture was mixed with 0.2 mL of a reaction stop solution (1% phosphoric acid), and subjected to HPLC analysis. HPLC analysis was carried out in the same manner as Example 5, and mandelate enzymatically-generated was quantified. The amount of hydrogen peroxide added and the generated amount of mandelate are shown in Table 3, wherein the generated amount of mandelate in the case of not adding hydrogen peroxide was taken as 100%.

[2] = test system: benzaldehyde generation from L-Phe by AAD, HmaS At, Md1B and Md1C concentrates; assay: Synthesis of benzaldehyde from L-Phe with addition of culture broth of catalase-expressing strain; format: biochemical, E. coli; settings: 50 mM L-Phe, 0.1 mL of 5-fold Cat concentrate in 1 mL reaction mixture, 25° C., 20 hours, then Md1C concentrate 4 hours; HPLC; Ctrl 9.1
Procedure: A 10 mL aliquot of the AAD culture broth obtained in Example 1 was centrifuged, 8 mL of the supernatant was removed, and the cells were suspended in the remaining culture supernatant, to obtain a 5-fold concentrated culture broth. This was used for the following reactions as an AAD concentrate. Similarly, 5-fold concentrates were prepared from the HmaS At culture broths, Md1B culture broth, and Md1C culture broth obtained in Examples 2 to 4, and used for the following reactions as a HmaS At concentrates, Md1B concentrate, and Md1C concentrate. A 1 mL aliquot of the Cat 1 culture broth obtained in Example 6 was centrifuged, 0.8 mL of the supernatant was removed, and the cells were suspended in the remaining culture supernatant, to obtain a 5-fold concentrated culture broth. This was used for the following reactions as a Cat 1 concentrate. Similarly, 5-fold concentrates were prepared from the Cat 2 to 15 culture broths and the Ctrl culture broth, and used for the following reactions as Cat 2 to 15 concentrates and a Ctrl concentrate.
After 20 hours, the reaction mixture was centrifuged, a 0.49 mL aliquot of the supernatant was mixed with 0.01 mL of the Md1C concentrate, and the resultant mixture was put into a test tube and shaken at 25° C. […]

Molecule	Generated amount of mandelate ([1]; 0.001 mM hydrogen peroxide added) [%]	Generated amount of mandelate ([1]; 0.01 mM hydrogen peroxide added) [%]	Generated amount of mandelate ([1]; 0.1 mM hydrogen peroxide added) [%]	Generated amount of mandelate ([1]; 1 mM hydrogen peroxide added) [%]	Effect on HMAS activity ([1]; 0.01 to 1 mM of hydrogen peroxide added)	Benzaldehyde [2] [mM]
OO [Hydrogen peroxide, hydrogen peroxide]	103	94	39	1	inhibits HMAS activity	
Cat 2: Cat HPII derived from E. coli (SEQ ID NO: 6), concentrated culture broth of expressing strain						10.7
